How the values were obtained:
Type in all cases: functional
Rattus norvegicus [1] = experiment: Percent reduction in swelling of the left hind paw in rat when 100 mg/kg of dose was injected perorally which was determined in adjuvant arthritis test; conditions: route oral
Rattus norvegicus [2] = experiment: Percent reduction in swelling of the left hind paw in rat when 10 mg/kg of dose was injected perorally which was determined in adjuvant arthritis test; conditions: route oral
Rattus norvegicus [3] = species on record: Rattus norvegicus; experiment: Activity relative to fenclofenac determined in adjuvant arthritis test
Rattus norvegicus [4] = experiment: Percent reduction in swelling of the left hind paw in rat determined in adjuvant arthritis test, 50 mg/kg dose perorally; conditions: route oral
Rattus norvegicus [5] = experiment: Percent reduction in swelling of the left hind paw in rat determined in adjuvant arthritis test, 25 mg/kg dose was perorally; conditions: route oral
Rattus norvegicus [6] = experiment: Percent reduction in swelling of the left hind paw in rat when 75 mg/kg of dose was injected perorally which was determined in adjuvant arthritis test; conditions: route oral
Rattus norvegicus [7] = experiment: Minimum ulcerogenic dose was evaluated 24 hours after peroral administration; value may range from 100-200
Rattus norvegicus [8] = experiment: Minimum ulcerogenic dose was evaluated 24 hours after peroral administration
Rattus norvegicus [9] = experiment: Minimum ulcerogenic dose was evaluated 24 hours after peroral administration; value may range from 25-50
Rattus norvegicus [10] = experiment: Minimum ulcerogenic dose was evaluated 24 hours after peroral administration; value may range from 50-100
Rattus norvegicus [11] = experiment: Percent reduction in swelling of the left hind paw in rat when 25 mg/kg of dose was injected perorally which was determined in adjuvant arthritis test; conditions: route oral
Rattus norvegicus [12] = experiment: Minimum ulcerogenic dose was evaluated 24 hours after peroral administration; value may range from 400-800

Nc1cc(Cl)ccc1Oc1ccccc1CC(=O)O
Reduction (Rattus norvegicus [1]): 4%

Cc1cccc([N+](=O)[O-])c1Oc1ccccc1CC(=O)O
Reduction (Rattus norvegicus [2]): 26%

CN1CCc2ccccc2Oc2c(Cl)cccc21
Relative potency (Rattus norvegicus [3]): 1.4
Reduction (Rattus norvegicus [4]): 31%

O=CN1CCc2ccccc2Oc2c(Cl)cccc21
Reduction (Rattus norvegicus [1]): 33%

CCCN1CCc2ccccc2Oc2c(Cl)cc(Cl)cc21
Relative potency (Rattus norvegicus [3]): 0.6
Reduction (Rattus norvegicus [4]): 39%

C[N+]1([O-])CCc2ccccc2Oc2c(Cl)cc(Cl)cc21 (stereo not drawn)
Relative potency (Rattus norvegicus [3]): 2.2
Reduction (Rattus norvegicus [4]): 42%

c1ccc2c(c1)CCNc1ccccc1O2
Reduction (Rattus norvegicus [4]): 6%

Cc1ccc2c(c1)CCNc1cccc(Cl)c1O2
Reduction (Rattus norvegicus [4]): 22%

COc1cc(N)c(Oc2ccccc2CC(=O)O)c(Cl)c1
Reduction (Rattus norvegicus [5]): 24%

CCC[N+]1([O-])CCc2ccccc2Oc2c(Cl)cc(Cl)cc21 (stereo not drawn)
Reduction (Rattus norvegicus [4]): 36%

Nc1c(Cl)cc(Cl)cc1Oc1ccccc1CC(=O)O
Relative potency (Rattus norvegicus [3]): 6.6
Reduction (Rattus norvegicus [2]): 37%

O=C(O)Cc1ccccc1Oc1c(Cl)cccc1[N+](=O)[O-]
Relative potency (Rattus norvegicus [3]): 2
Reduction (Rattus norvegicus [6]): 45%
MUD (Rattus norvegicus [7]): 100 mg/kg

O=C(O)Cc1cccc(Cl)c1Oc1c(Cl)cccc1[N+](=O)[O-]
Reduction (Rattus norvegicus [5]): 1%

CCCC(=O)N1CCc2ccccc2Oc2c(Cl)cc(Cl)cc21
Reduction (Rattus norvegicus [1]): 8%

NNC(=O)N1CCc2ccccc2Oc2c(Cl)cc(Cl)cc21
Reduction (Rattus norvegicus [5]): 32%
Relative potency (Rattus norvegicus [3]): 0.6

Cc1cc(N)c(Oc2ccccc2CC(=O)O)c(Cl)c1
Reduction (Rattus norvegicus [5]): 20%

Nc1ccc(Cl)cc1Oc1ccccc1CC(=O)O
Reduction (Rattus norvegicus [5]): 12%

O=C(Cc1ccccc1Oc1c(Cl)cccc1[N+](=O)[O-])OC1OC(=O)c2ccccc21 (stereo not drawn)
Relative potency (Rattus norvegicus [3]): 0.7
MUD (Rattus norvegicus [8]): >800 mg/kg
Reduction (Rattus norvegicus [4]): 30%

Cc1ccc2c(c1)CCNc1cc(Cl)c(Cl)cc1O2
Reduction (Rattus norvegicus [4]): 8%

Nc1cc(Br)cc(Br)c1Oc1ccccc1CC(=O)O
Reduction (Rattus norvegicus [5]): 50%
Relative potency (Rattus norvegicus [3]): 8.6
MUD (Rattus norvegicus [9]): 25 mg/kg

Clc1ccc(CN2CCc3ccccc3Oc3c(Cl)cc(Cl)cc32)cc1
Reduction (Rattus norvegicus [4]): 10%

Cc1cccc(CC(=O)O)c1Oc1c(Cl)cccc1[N+](=O)[O-]
Reduction (Rattus norvegicus [5]): 0%

CCc1cc(Cl)c2c(c1)NCCc1cc(C)ccc1O2
Reduction (Rattus norvegicus [1]): 13%

COc1cc(Cl)cc2c1Oc1ccc(C)cc1CCN2
Reduction (Rattus norvegicus [6]): 1%

O=C(Cc1ccccc1Oc1c(Cl)cccc1[N+](=O)[O-])NO
Reduction (Rattus norvegicus [4]): 36%

COC(=O)Cc1ccccc1Oc1c(Cl)cc(Cl)cc1NC(C)=O
Reduction (Rattus norvegicus [5]): 18%

Clc1ccc2c(c1)CCNc1cc(Cl)cc(Cl)c1O2
Relative potency (Rattus norvegicus [3]): 0.8
Reduction (Rattus norvegicus [4]): 25%

Nc1cccc(Cl)c1Oc1cc(Cl)ccc1CC(=O)O
Reduction (Rattus norvegicus [5]): 1%

CCc1cc(N)c(Oc2ccc(C)cc2CC(=O)O)c(F)c1
Reduction (Rattus norvegicus [5]): 1%
MUD (Rattus norvegicus [7]): 100 mg/kg

O=C(O)Cc1ccccc1Oc1c([N+](=O)[O-])cc(Cl)c(Cl)c1Cl
Relative potency (Rattus norvegicus [3]): 0.6
Reduction (Rattus norvegicus [2]): 17%

O=C(Cl)N1CCc2ccccc2Oc2c(Cl)cc(Cl)cc21
Reduction (Rattus norvegicus [4]): 7%

CCc1cc(N)c(Oc2ccc(C)cc2CC(=O)O)c(Cl)c1
Reduction (Rattus norvegicus [5]): 34%
Relative potency (Rattus norvegicus [3]): 1

Cc1ccc2c(c1)NCCc1ccccc1O2
Reduction (Rattus norvegicus [4]): 0%

CNc1cc(Cl)cc(Cl)c1Oc1ccccc1CC(=O)OC
Relative potency (Rattus norvegicus [3]): 2.5
Reduction (Rattus norvegicus [4]): 36%
MUD (Rattus norvegicus [10]): 50 mg/kg

NC(=O)Cc1ccccc1Oc1c(Cl)cccc1[N+](=O)[O-]
Relative potency (Rattus norvegicus [3]): 1.1
MUD (Rattus norvegicus [8]): >800 mg/kg
Reduction (Rattus norvegicus [4]): 36%

Clc1cc(Cl)c2c(c1)NCCc1ccccc1O2
Relative potency (Rattus norvegicus [3]): 2.1
Reduction (Rattus norvegicus [11]): 41%

COc1cc(Cl)c2c(c1)NCCc1ccccc1O2
Reduction (Rattus norvegicus [4]): 18%

Fc1cccc2c1Oc1ccccc1CCN2
Reduction (Rattus norvegicus [4]): 0%

CN1CCc2cc(Cl)ccc2Oc2c(Cl)cccc21
Reduction (Rattus norvegicus [4]): 13%

Cc1cc(Cl)c2c(c1)NCCc1ccccc1O2
Reduction (Rattus norvegicus [11]): 23%

Clc1ccc2c(c1)NCCc1ccccc1O2
Reduction (Rattus norvegicus [4]): 0%

Cc1ccc2c(c1)CCN(C)c1cccc(Cl)c1O2
Reduction (Rattus norvegicus [4]): 15%

CC(=O)N1CCc2ccccc2Oc2c(Cl)cc(Cl)cc21
Reduction (Rattus norvegicus [6]): 10%

CN1CCc2ccccc2Oc2c(Cl)cc(Cl)cc21
Relative potency (Rattus norvegicus [3]): 2.4
Reduction (Rattus norvegicus [4]): 35%

Clc1cccc2c1Oc1ccccc1CCN2
Relative potency (Rattus norvegicus [3]): 0.2
Reduction (Rattus norvegicus [1]): 33%

Clc1ccc2c(c1)Oc1ccccc1CCN2
Reduction (Rattus norvegicus [4]): 0%

CCc1cc(Cl)cc(N)c1Oc1ccccc1CC(=O)O
Relative potency (Rattus norvegicus [3]): 2.8
Reduction (Rattus norvegicus [2]): 25%

CNc1cccc(Cl)c1Oc1ccccc1CCO
Relative potency (Rattus norvegicus [3]): 5
Reduction (Rattus norvegicus [2]): 36%
MUD (Rattus norvegicus [7]): 100 mg/kg

O=C(O)Cc1ccccc1Oc1c([N+](=O)[O-])ccc(Cl)c1Cl
Reduction (Rattus norvegicus [5]): 25%

O=[N+]([O-])c1cccc(Cl)c1Oc1ccccc1CCO
Reduction (Rattus norvegicus [1]): 37%
MUD (Rattus norvegicus [10]): 50 mg/kg

Nc1cccc(Cl)c1Oc1ccccc1CC(=O)OC1OC(=O)c2ccccc21 (stereo not drawn)
Reduction (Rattus norvegicus [1]): 36%

Cc1cc(Cl)cc(N)c1Oc1ccccc1CC(=O)O
Relative potency (Rattus norvegicus [3]): 5.6
Reduction (Rattus norvegicus [2]): 34%
MUD (Rattus norvegicus [9]): 25 mg/kg

COC(=O)Cc1ccccc1Oc1c(N)cccc1Cl
Reduction (Rattus norvegicus [5]): 35%

Clc1ccc2c(c1)Oc1c(Cl)cccc1NCC2
Reduction (Rattus norvegicus [4]): 10%

Cc1cc(N)c(Oc2ccc(Cl)cc2CC(=O)O)c(Cl)c1
Reduction (Rattus norvegicus [5]): 32%
Relative potency (Rattus norvegicus [3]): 1.4

COC(=O)Cc1ccccc1Oc1c(Cl)cc(Cl)cc1N(C)C
Relative potency (Rattus norvegicus [3]): 2.7
Reduction (Rattus norvegicus [2]): 33%

Nc1cccc(Cl)c1Oc1ccccc1CC(=O)O
Reduction (Rattus norvegicus [5]): 36%
Relative potency (Rattus norvegicus [3]): 3.5
MUD (Rattus norvegicus [9]): 25 mg/kg

O=C(O)Cc1ccccc1Oc1c(Cl)cc(Cl)cc1[N+](=O)[O-]
Reduction (Rattus norvegicus [5]): 36%

CCC(C)c1cc(Cl)c2c(c1)NCCc1cc(C)ccc1O2 (stereo not drawn)
Reduction (Rattus norvegicus [4]): 14%

Cc1cc(Cl)cc2c1Oc1ccccc1CCN2
Relative potency (Rattus norvegicus [3]): 0.9
Reduction (Rattus norvegicus [4]): 32%

Cc1c(Cl)ccc(N)c1Oc1ccccc1CC(=O)O
Reduction (Rattus norvegicus [5]): 34%
Relative potency (Rattus norvegicus [3]): 4.1
MUD (Rattus norvegicus [7]): 100 mg/kg

CNc1cccc(Cl)c1Oc1ccccc1CC(=O)O
Relative potency (Rattus norvegicus [3]): 15
MUD (Rattus norvegicus [8]): <12.5 mg/kg

Cc1cccc(N)c1Oc1ccccc1CC(=O)O
Reduction (Rattus norvegicus [5]): 32%
Relative potency (Rattus norvegicus [3]): 1.9
MUD (Rattus norvegicus [12]): 400 mg/kg

Cc1ccc2c(c1)CCNc1cc(Cl)cc(Cl)c1O2
Reduction (Rattus norvegicus [4]): 17%

Nc1cccc(F)c1Oc1ccccc1CC(=O)O
Reduction (Rattus norvegicus [5]): 27%

C[N+]1([O-])CCc2ccccc2Oc2c(Cl)cccc21 (stereo not drawn)
Reduction (Rattus norvegicus [5]): 23%
Relative potency (Rattus norvegicus [3]): 0.7

CCC(C)c1cc(N)c(Oc2ccc(C)cc2CC(=O)O)c(Cl)c1 (stereo not drawn)
Reduction (Rattus norvegicus [2]): 10%

Nc1c(Cl)c(Cl)cc(Cl)c1Oc1ccccc1CC(=O)O
Relative potency (Rattus norvegicus [3]): 11.6
Reduction (Rattus norvegicus [2]): 37%
MUD (Rattus norvegicus [10]): 50 mg/kg

O=C(c1ccc(Cl)cc1)N1CCc2ccccc2Oc2c(Cl)cc(Cl)cc21
Reduction (Rattus norvegicus [4]): 0%

CCOC(=O)N1CCc2ccccc2Oc2c(Cl)cc(Cl)cc21
Relative potency (Rattus norvegicus [3]): 0.5
Reduction (Rattus norvegicus [2]): 21%

Cc1cc(N)c(Oc2ccc(C)cc2CC(=O)O)c(Cl)c1
Reduction (Rattus norvegicus [5]): 3%

C/C=C/CN1CCc2ccccc2Oc2c(Cl)cc(Cl)cc21
Reduction (Rattus norvegicus [4]): 21%

O=C(O)Cc1ccccc1Oc1c(Cl)cc(Cl)c(Cl)c1[N+](=O)[O-]
Reduction (Rattus norvegicus [2]): 30%

Clc1ccc2c(c1)CCNc1cccc(Cl)c1O2
Reduction (Rattus norvegicus [4]): 16%

CCN(CC)C(=O)Cc1ccccc1Oc1c(N)cccc1Cl
Reduction (Rattus norvegicus [4]): 6%

Nc1cc(Cl)c(Cl)c(Cl)c1Oc1ccccc1CC(=O)O
Relative potency (Rattus norvegicus [3]): 8.2
Reduction (Rattus norvegicus [2]): 33%

Cc1cc(Cl)cc([N+](=O)[O-])c1Oc1ccccc1CC(=O)O
Reduction (Rattus norvegicus [5]): 34%
Relative potency (Rattus norvegicus [3]): 3.3

Oc1ccc2c(c1)CCNc1cc(Cl)cc(Cl)c1O2
Reduction (Rattus norvegicus [2]): 2%

CC(=O)NNC(=O)N1CCc2ccccc2Oc2c(Cl)cc(Cl)cc21
Reduction (Rattus norvegicus [1]): 18%

Nc1ccc(Cl)c(Cl)c1Oc1ccccc1CC(=O)O
Reduction (Rattus norvegicus [5]): 33%

Nc1cc(C(F)(F)F)ccc1Oc1ccccc1CC(=O)O
Relative potency (Rattus norvegicus [3]): 2.1
Reduction (Rattus norvegicus [1]): 36%
MUD (Rattus norvegicus [12]): 400 mg/kg

C=CCN1CCc2ccccc2Oc2c(Cl)cc(Cl)cc21
Reduction (Rattus norvegicus [4]): 18%

Cc1ccc(Oc2cc(Cl)c(Cl)cc2N)c(CC(=O)O)c1
Reduction (Rattus norvegicus [5]): 10%

CNc1cccc(C)c1Oc1ccccc1CC(=O)O
Reduction (Rattus norvegicus [5]): 46%
Relative potency (Rattus norvegicus [3]): 6.5
MUD (Rattus norvegicus [9]): 25 mg/kg

Clc1cc(Cl)c2c(c1)N(Cc1ccccc1)CCc1ccccc1O2
Reduction (Rattus norvegicus [2]): 2%

COC(=O)Cc1ccccc1Oc1c(Cl)cccc1[N+](=O)[O-]
Reduction (Rattus norvegicus [5]): 31%

Cc1cc(Cl)c2c(c1)NCCc1cc(Cl)ccc1O2
Relative potency (Rattus norvegicus [3]): 0.5
Reduction (Rattus norvegicus [1]): 21%

Nc1cccc(N)c1Oc1ccccc1CC(=O)O
Reduction (Rattus norvegicus [5]): 5%

Cc1c(Cl)c(C)c2c(c1Cl)Oc1ccccc1CCN2
Reduction (Rattus norvegicus [4]): 6%

O=C(O)Cc1ccccc1Oc1ccccc1[N+](=O)[O-]
Reduction (Rattus norvegicus [4]): 1%

O=C(O)Cc1ccccc1Oc1ccc(C(F)(F)F)cc1[N+](=O)[O-]
Reduction (Rattus norvegicus [1]): 29%

O=C(O)Cc1ccccc1Oc1cc(Cl)cc(Cl)c1[N+](=O)[O-]
Relative potency (Rattus norvegicus [3]): 2.9
Reduction (Rattus norvegicus [2]): 34%

CC(C)(C)OC(=O)Cc1ccccc1Oc1c(Cl)cccc1[N+](=O)[O-]
Reduction (Rattus norvegicus [4]): 21%

NC(=O)Cc1ccccc1Oc1c(N)cccc1Cl
Reduction (Rattus norvegicus [4]): 14%

CNC(=O)N1CCc2ccccc2Oc2c(Cl)cc(Cl)cc21
Reduction (Rattus norvegicus [2]): 4%

Clc1ccc2c(c1)CCNc1c(Cl)ccc(Cl)c1O2
Reduction (Rattus norvegicus [4]): 14%

CNc1cc(Cl)cc(C)c1Oc1ccccc1CC(=O)O
Relative potency (Rattus norvegicus [3]): 2.8
Reduction (Rattus norvegicus [2]): 28%

From ChEMBL document CHEMBL1122891, “Substituted 5H-dibenz[b,g]-1,4-oxazocines and related amino acids with antiinflammatory activity” (1985)
